Like-named read-outs stand apart in the source and are kept apart here.
What was measured:
lymph nodes = test: Amount of EB dye in lymph nodes after local co-injection of 18F-AlF-NEB and EB; settings: ex vivo
Protocol: Ninety min after local injection, both popliteal LN sites could be distinguished clearly by the apparent blue color, indicating the local accumulation of the dye molecules. The left sciatic LNs could also be seen but with much lower uptake of dye (FIGS. 19A and 19B). There was significant difference in weight between the popliteal LNs on the tumor side and the contralateral side but not between the sciatic LNs (popliteal LNs: 3.582±0.762 vs. 1.995±0.759 mg, p<0.05; sciatic LNs: 1.558±0.731 vs. 1.403±0.632 mg, p>0.05) (FIG. 20). […] However, there was no difference in the amount of EB between two sciatic LNs (0.030±0.008 μg vs. 0.028±0.015 μg, p>0.05). These ex vivo results were consistent with in vivo PET data.

albumin = albumin (Homo sapiens, UniProt P02768); test: Absorbance and fluorescence emission of Evans blue with and without albumin; format: physicochemical
Sequence of albumin (P02768 25-609, species assumed): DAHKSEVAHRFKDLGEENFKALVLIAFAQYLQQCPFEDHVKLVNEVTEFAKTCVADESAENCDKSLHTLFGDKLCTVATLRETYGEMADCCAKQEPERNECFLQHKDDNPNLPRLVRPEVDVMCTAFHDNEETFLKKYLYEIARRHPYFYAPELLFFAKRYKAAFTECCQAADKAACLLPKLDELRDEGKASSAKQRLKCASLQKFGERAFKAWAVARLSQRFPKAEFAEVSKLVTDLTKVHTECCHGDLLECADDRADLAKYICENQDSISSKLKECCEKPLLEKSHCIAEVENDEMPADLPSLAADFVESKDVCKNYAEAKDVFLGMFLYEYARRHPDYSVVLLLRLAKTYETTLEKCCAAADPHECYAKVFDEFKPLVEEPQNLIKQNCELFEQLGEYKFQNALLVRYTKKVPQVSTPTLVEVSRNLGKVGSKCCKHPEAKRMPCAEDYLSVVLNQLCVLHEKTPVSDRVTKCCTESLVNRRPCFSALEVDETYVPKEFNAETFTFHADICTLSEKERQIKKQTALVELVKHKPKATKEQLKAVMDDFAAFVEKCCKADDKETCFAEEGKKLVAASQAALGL
Source text: FIGS. 1A and 1B show the absorbance and fluorescence emission of Evans blue with and without albumin. […] Evans blue is almost not fluorescent without albumin.
After forming a complex with serum albumin, both NEB and EB became fluorescent. Since only trace amount of NEB was mixed with EB, the majority of the fluorescence came from EB. […] With optical imaging, the migration of the injected EB/NEB in lymphatics could be clearly observed after local injection. The fluorescence signal first reached the popliteal LN then migrated to the sciatic LN (FIG. 22). Ninety min after tracer injection, both LNs were clearly visualized by fluorescence optical imaging. Under bright light, apparent blue dye accumulation could also be seen by the naked eye (FIGS. 23A and 23B). PET and optical imaging were also performed with the same animal after injection of ^18F-AlF-NEB/EB. An overlay of the two images provided high positional correlation of the LNs (FIGS. 24A and 24B).

platelet aggregation = settings: cited from earlier work
UM-22B tumors = system: UM-22B tumors; parameters: species or system mice; settings: female, athymic nude, mouse, in vivo
Protocol: All animal studies were conducted in accordance with the principles and procedures outlined in the Guide for the Care and Use of Laboratory Animals and were approved by the Institutional Animal Care and Use Committee of the Clinical Center, NIH. The UM-22B human head and neck carcinoma cancer cell line was grown in DMEM medium supplemented with 10% fetal bovine serum (FBS), 100 IU/mL penicillin, and 100 μg/mL streptomycin (Invitrogen), and in a humidified atmosphere containing 5% CO2 at 37° C. The tumor model was developed in 5 to 6 week old female athymic nude mice (Harlan Laboratories) by injection of 5×10^6 cells into their right shoulders. The mice underwent small-animal PET studies when the tumor volume reached 100-300 mm^3 (2-3 weeks after inoculation).
PET scans and image analysis were performed using an Inveon small animal PET scanner (Siemens Medical Solutions). About 3.7 MBq of ^18F-AlF-NEB or ^18F-FB-Albumin or 7.4 MBq of ^64Cu-NEB was administered via tail vein injection under isoflurane anesthesia. For normal mice, 60-min dynamic PET scans were acquired. For tumor mice, 60-min dynamic PET scans were acquired, followed by a series of late time point scans at 2, 4, and 24 h (^64Cu only) after tracer injection. With acute inflammation model, 5-min static PET images were acquired at 30 min, 1 h and 2 h postinjection (n=3-5 per group). The images were reconstructed using a two-dimensional ordered-subset expectation maximum (2D OSEM) algorithm, and no correction was applied for attenuation or scatter. For each scan, regions of interest (ROIs) were drawn using vendor software (ASI Pro 5.2.4.0) on decay-corrected whole-body coronal images. The radioactivity concentrations (accumulation) within the heart, muscle, liver, and kidneys were obtained from mean pixel values within the multiple ROI volume and then converted to MBq per milliliter. These values were then divided by the administered activity to obtain (assuming a tissue density of 1 g/ml) an image-ROI-derived percent injected dose per gram (% ID/g).
Malignant tumors are characterized by torturous blood vessels and high vascular permeability. Besides, the anti-angiogenesis and “normalization” of tumor vasculature have been intensively investigated. Unlike radiolabeled RBCs, albumin can be used to study vascular permeability in tumors. NEB was labeled with ^64Cu, a positron emitter with longer half-life (t1/1=12.6 h) than ^18F (t1/2=109.8 min). A UM-22B xenograft model was developed and performed 60-min dynamic scan and then static scans at late time points up to 24 h. The in vivo distribution of ^64Cu-NEB was very similar to that of ^18F-AlF-NEB with most of radioactivity retained in the circulation system (FIG. 4A). Even at 4 h after tracer injection, radioactivity within heart region and major vessels was still dominant. […] At 24 h after tracer injection, the tumor uptake was still at a relatively high level (8.07±1.01% ID/g). The tracer uptake over the heart region was 16.09±0.51% ID/g at 1 h p.i., which dropped to 8.58±0.81% ID/g at 24 h (FIG. 5B).

[1] = human, in vivo
Protocol: A dosimetry study was also performed based on the PET imaging data.

[2] = ninety min after local injection

SMILES | amount of EB in sciatic LNs, first value of the pair (lymph nodes; presumably left side) [µg] | amount of EB in sciatic LNs, second value of the pair (lymph nodes; presumably right side) [µg] | amount of EB dye in left popliteal LNs (lymph nodes; [2]) [µg] | amount of EB dye in right popliteal LNs (lymph nodes; [2]) [µg] | fluorescence emission peak (albumin; only with albumin) [nm] | absorbance peak (albumin; with or without albumin) [nm] | threshold concentration for induction of platelet aggregation (platelet aggregation) | tracer uptake over the heart region (UM-22B tumors; 1 h) [% ID/g] | tumor uptake (UM-22B tumors; 1 h) [% ID/g] | tumor uptake (UM-22B tumors; 2 h) [% ID/g] | tracer uptake over the heart region (UM-22B tumors; 24 h) [% ID/g] | tumor uptake (UM-22B tumors; 24 h) [% ID/g] | absorbed dose, red bone marrow [1] [mSv]
Cc1cc(-c2ccc(/N=N/c3ccc4c(S(=O)(=O)O)cc(S(=O)(=O)O)c(N)c4c3O)c(C)c2)ccc1/N=N/c1ccc2c(S(=O)(=O)O)cc(S(=O)(=O)O)c(N)c2c1O [EB, Evans blue] | 0.030 ± 0.008 | 0.028 ± 0.015 | 0.144 ± 0.034 | 0.091 ± 0.029 | 680 | 620 | about 100 μM | – | – | – | – | – | –
Cc1cc(-c2ccc(NC(=O)CN3CCN4CCN(CC3)CC(=O)[O][64Cu][O]C(=O)C4)c(C)c2)ccc1N=Nc1ccc2c(S(=O)(=O)O)cc(S(=O)(=O)O)c(N)c2c1O [^64Cu-NEB] | – | – | – | – | – | – | – | 16.09±0.51 | 5.73±1.11 | 8.03±0.77 | 8.58±0.81 | 8.07±1.01 | 6.14

— patent publication US10258701B2, “Labeled evans blue dye derivative for in vivo serum albumin labeling” (The United States of America, as represented by the …, priority 2015, dated 2019)
